Laboratory results published in publication PMC7583056, “Synthesis, Characterisation and In Vitro Anticancer Activity of Catalytically Active Indole-Based Half-Sandwich Complexes” (Molecules, 2020).
Read-outs that look alike come from different tables or passages of the source.

Columns and labels:
A2780 cells [1] = assay: Chemosensitivity assay (MTT) in A2780 cells; assay type: cell-based; settings: for Selectivity towards cancerous cells (A2780) versus normal cells (PNT2): from IC50 values A2780 vs PNT2
Source text: The antiproliferative activity of the ind-py ligand and of complexes 1–4 against ovarian cancer A2780 (cisplatin sensitive) and A2780cisR (cisplatin resistant) cell lines was studied. The IC50 values obtained for all the complexes are shown in Table 2, together with values for cisplatin, which was used as a positive control (untreated cells for 100% viability as negative control). […] One of the major limitations of existing anticancer drugs is their poor selectivity towards cancer cells. Comparing the response of the cancer cell lines to the normal PNT2 cells provides a preliminary indication towards the selectivity of the compounds.
In vitro chemosensitivity tests were performed against A2780, A2780cisR and PNT2 cells. Cells were routinely maintained as monolayer cultures in RPMI medium supplemented with 10% foetal calf serum, penicillin (100 I.U./mL) and streptomycin (100 μg/mL), sodium pyruvate (1 mM) and L-glutamine (2 mM). For chemosensitivity studies, cells were incubated in 96-well plates at a concentration of 7.5 × 10^3 cells per well and the plates were incubated for 24 h at 37 °C and a 5% CO2 humidified atmosphere prior to drug exposure.
Complexes were dissolved in DMSO to provide stock solutions, which were further diluted with media to provide a range of final concentrations. Drug-media solutions were added to cells (the final concentration of DMSO was less than 1% (v/v) in all cases) and incubated for 24 h at 37 °C and 5% CO2 humidified atmosphere. The drug-media was removed from the wells and the cells were washed with PBS (100 μL, twice), and 100 μL of complete fresh media were added to each well. The plates were further incubated for 48 h at 37 °C in a 5% CO2 humidified atmosphere to allow for a period of recovery. 3-(4,5-dimethylthiazol-2-yl)-2,5-diphenyltetrazolium bromide (MTT) (20 μL, 2.5 mg/mL) was added to each well and incubated for 2 h at 37 °C and 5% CO2 humidified atmosphere. All solutions were then removed and 100 μL of DMSO was added to each well in order to dissolve the purple formazan crystals. A Thermo Scientific Multiskan EX microplate photometer was used to measure the absorbance in each well at 570 nm. Cell survival was determined as the absorbance of treated cells divided by the absorbance of controls and expressed as a percentage. The IC50 values were determined from plots of % survival against drug concentration. Each experiment was repeated in triplicates of triplicates and a mean value was obtained and stated as IC50 (μM) ± SD. Cisplatin was also used as a positive control.

A2780 cells [2] = assay: Cell viability of A2780 cells, co-incubation with N-acetylcysteine (NAC); assay type: cell-based; settings: complex at IC50 concentration, NAC 0, 2, 5 and 10 mM
Procedure: In order to determine whether ROS formation is a plausible explanation for the activity of these compounds, A2780 cells were treated at IC50 concentrations of 1–4 in combination with increasing concentrations of N-acetylcysteine (NAC; 0, 2, 5 and 10 mM; Figure 4). NAC is a known compound that can act as an ROS scavenger in cells and can be used to counteract the effects of complexes that affect ROS levels. […] However, this effect is not observed with the Os and Ru analogues.
Cells were incubated in 96-well plates at a concentration of 7.5 × 10^3 cells per well and the plates were incubated for 24 h at 37 °C and a 5% CO2 humidified atmosphere prior to drug exposure. Complexes were dissolved in DMSO to provide stock solutions, which were further diluted with media to working concentrations. Solution of N-acetylcysteine (NAC) or sodium formate in media were also prepared. Drug-media solutions and NAC or sodium formate solutions were added to cells (final concentrations as follows: IC50 values for the complex; 0, 2, 5 and 10 mM for NAC; 0, 0.5, 1 and 2 mM for sodium formate; DMSO concentration was less than 1% (v/v) in all cases) and incubated for 24 h at 37 °C in a 5% CO2 humidified atmosphere. After 24 h of incubation, the drug-media was removed from the wells and the cells were washed with PBS (100 μL, twice), and 100 μL of complete fresh media were added to each well. The plates were further incubated for 48 h at 37 °C in a 5% CO2 humidified atmosphere to allow for a period of recovery. 3-(4,5-dimethylthiazol-2-yl)-2,5-diphenyltetrazolium bromide (MTT) (20 μL, 2.5 mg/mL) was added to each well and incubated for 2 h at 37 °C and 5% CO2 humidified atmosphere. All solutions were then removed and 100 μL of DMSO was added to each well in order to dissolve the purple formazan crystals. A Thermo Scientific Multiskan EX microplate photometer was used to measure the absorbance in each well at 570 nm. Cell survival was determined as the absorbance of treated cells divided by the absorbance of controls and expressed as a percentage.

[3] = Transfer hydrogenation: reduction of NAD+ with formate as hydride donor (1H-NMR); settings: for TOF (turnover frequency) for the reduction of NAD+: NAD+ 9 mol. equiv., formate 28 mol. equiv., pH* 7.4 ± 0.2, 310 K, complex 1.1 mM in MeOD/D2O (1:1 v/v)
Procedure: The ability of complexes 1–4 to oxidise NADH was investigated. The ^1H-NMR spectra show an increase of the NAD^+ signals over time (Figure 3). However, the reaction is very slow and after 8 h only around 10% of NADH is converted to NAD^+. […] The possibility of using compounds 1–4 as a transfer hydrogenation catalyst to reduce NAD^+ was investigated (Materials and Methods section). Compounds 1–4 reduced NAD^+ with turnover frequencies (TOF) between 6 and 15 h^−1 (Table 1), which is within the range of previously reported compounds [51, 53, 74, 75, 76]. Remarkably, under the conditions here reported (MeOD/D2O 1:1 v/v, 310 K, pH* 7.4 ± 0.2), the iridium complex 2 reduced nine molar equivalents of NAD^+ within the initial 10 min. However, no TOF could be calculated for this compound, owing to the speed of the reaction.
Transfer hydrogenation reactions with complexes 1–4, formate, and NAD^+ were studied by mixing a solution of the corresponding complex (2.2 mM, MeOD), sodium formate (137 mM, D2O) and NAD^+ (44 mM, D2O). Final concentrations of 1.1 mM for the complex, 10 mM for NAD^+ and 30 mM for NaHCO2 were obtained (molar ratio 1:9:28). The pH of the mixture was adjusted to 7.4 ± 0.2. ^1H-NMR spectra were recorded at 310 K every 5 min until completion of the reaction.
Molar ratios of NAD^+ and NADH were determined by integrating the area under the signals associated with NAD^+ (9.33 ppm) and 1,4-NADH (6.96 ppm). The turnover number (TON) for the reaction was calculated as follows: (1) TONI6.96/I6.96+[…][NAD^+]0/[Catalyst] where In is the integral of the signal at n ppm and [NAD^+]0 is the concentration of NAD^+ at the start of the reaction.

[4] = 24 h exposure + 48 h recovery, MTT, mean ± SD, read-out: IC50 A2780
[5] = A2780 and A2780cisR, read-out: IC50 values (in the range of)

Row | SMILES | IC50 (A2780 cells [1]; [4]) | IC50 relative to cisplatin (fold higher / less active) (A2780 cells [1]; A2780 and A2780cisR) | IC50 (A2780 cells [1]; [5]) | Selectivity towards cancerous cells (A2780) versus normal cells (PNT2) (A2780 cells [1]) | Effect on cell viability in NAC-supplemented cells (A2780 cells [2]) | TOF (printed in Figure 3C) ([3]; 28 mol. equiv. formate, 9 mol. equiv. NAD+, MeOD/D2O 1/1 v/v, pH 7.4, 310 K, in 1/h) | TOF (turnover frequency) for the reduction of NAD+ [3] | Time to reduce nine molar equivalents of NAD+ ([3]; MeOD/D2O 1:1 v/v, 310 K, pH* 7.4 ± 0.2, formate 28 mol. equiv.)
1 | Cc1c(C)c(C)[c-](C)c1C.[Cl-].[Rh+3].c1ccc(-c2cc3ccccc3[n-]2)nc1 [complex 1, [Cp*Rh(ind-py)Cl]] | 13 ± 1.7 µM | 3 × | ~20 µM | 3 × | significant decrease of the cell viability | 14.63 ± 0.78 | 14.6 ± 0.7 h⁻¹ | 
2 | Cc1c(C)c(C)[c-](C)c1C.[Cl-].[Ir+3].c1ccc(-c2cc3ccccc3[n-]2)nc1 [complex 2, [Cp*Ir(ind-py)Cl]] | 22 ± 2.5 µM | 3 × | ~20 µM |  | significant decrease of the cell viability |  |  | ≤ 10 min
3 | Cc1ccc(C(C)C)cc1.[Cl-].[Ru+2].c1ccc(-c2cc3ccccc3[n-]2)nc1 [complex 3, [(p-cym)Ru(ind-py)Cl]] | 47.3 ± 4.7 µM |  |  |  | not observed |  | 7.95 ± 0.81 h⁻¹ | 
4 | Cc1ccc(C(C)C)cc1.[Cl-].[Os+2].c1ccc(-c2cc3ccccc3[n-]2)nc1 [complex 4, [(p-cym)Os(ind-py)Cl]] | 18.8 ± 0.3 µM | 3 × | ~20 µM | 2 × | not observed |  | 5.74 ± 0.35 h⁻¹ | 
